Measurements as given in article PMC6062912, “The Evolutionary Conserved γ-Core Motif Influences the Anti-Candida Activity of the Penicillium chrysogenum Antifungal Protein PAF” (Frontiers in Microbiology, 2018).
Like-named read-outs stand apart in the source and are kept apart here. Residues, ends and D or L forms follow the SMILES beside them.

Assays:
Assay type in all cases: cell-based, Candida albicans
C. albicans [1] = conditions: 2 h
Experimental: Fungistatic or fungicidal activities were determined by incubating C. albicans (10^4 cells mL^-1) in 0.05× PDB with proteins and peptides at 1× MIC and 2× MIC of at 30°C under continuous shaking (800 rpm) in a Thermomixer Comfort (Eppendorf). At defined time points, aliquots were taken and appropriate dilutions were plated on YPD agar in duplicates to promote growth of viable cells. Agar plates were incubated at 37°C for 24 h to count colony forming units (cfu) ([Huber et al., 2018]).
The determination of the MIC concentration is a well-established, reliable method to elucidate the growth reducing effect of an antifungal compound. […] To gain deeper insight into the antifungal mechanism of the generated protein and peptide variants, we compared them first for their fungicidal potential. In liquid culture C. albicans was exposed to 1× MIC and 2× MIC concentrations of each protein and peptide. After certain time points aliquots were taken and appropriate dilutions were spread on agar plates to allow colony formation of viable cells. The cfu were counted and compared to the untreated control, which was set to be 100%. […] The candidacidal effects were aggravated with higher protein concentrations.

C. albicans [2] = assay: Cell size reduction (FSC) by flow cytometry; conditions: 2× MIC, mean ± SD
Experimental: To analyze changes in cell size and to assess kinetics of cell death of C. albicans upon antifungal treatment flow cytometry was applied. For both experiments, 10^4 cells mL^-1 was incubated in 0.05× PDB with the desired AMP concentration for different time points. The incubation was performed in 1.5 mL reaction tubes at 30°C under continuous shaking at 800 rpm in a Thermomixer Comfort (Eppendorf). After incubation, the cells were centrifuged at 4°C with 3,000 ×g for 3 min. For cell size determination, the supernatant was removed and the cells were resuspended and fixed in PBS containing 3.7% (v/v) formaldehyde before changes in cell size were measured by plotting SSC against FSC. C. albicans that were incubated at 95°C for 120 min served as controls. Microscopic control-images were taken with a fluorescence microscope (Axioplan, Zeiss), equipped with a camera (Axiocam 503 mono, Zeiss) and excitation/emission filters (365/420 nm for blue fluorescence and 546/590 or 565/620 nm for red fluorescence, Zeiss). Image acquisition was performed with ZEN 2 microscope software (Zeiss, blue edition) and the cell area was measured with ImageJ 1.52d software ([Schindelin et al., 2012]).
Cell shrinkage of C. albicans is a sign for cell death when exposed to AMPs ([Lee et al., 2017]). We therefore analyzed the changes in size of AMP-treated C. albicans cells by recording the FSC with flow cytometry. To this end, C. albicans cells were analyzed after 10 and 30 min of exposure to 1× MIC and 2× MIC of AMPs (Figure 5). Heat-killed and untreated C. albicans cells served as positive and negative controls, respectively (Supplementary Figure S8). […] Pγ^var and Pγ^opt caused a very prominent decrease in the FSC value compared to the untreated cell population when applied at 2× MIC. Pγ^var and Pγ^opt reduced the average cell size after a 10-min treatment by 28 ± 13 (P = 0.022) and 18 ± 10% (P = 0.041), respectively, and after 30 min the cell size was reduced by 48 ± 8 (P < 0.001) and 37 ± 12% (P = 0.007), respectively.

C. albicans [3] = assay: ROS production, DCFH-DA fluorometric assay; conditions: for ROS signal higher compared to Pγ: 60 min
Experimental: For the detection of ROS generation in C. albicans a dichloro-dihydro-fluorescein diacetate (DCFH-DA, Sigma-Aldrich)-based fluorometric assay was applied, adapted from [Han et al. (2016)]. Cells from an overnight culture of C. albicans, grown on YPD agar, were suspended in 0.05× PDB (Sigma-Aldrich) and the cell number was adjusted to 10^7 cells mL^-1. DCFH-DA stock solution (100 mM in DMSO) was added to the cell suspension to give a final concentration of 100 μM. This cell suspension was pre-incubated for 30 min at 30°C protected from light. Serial dilutions of the test compounds were prepared in 0.05× PDB (Sigma-Aldrich) in 96-well microtiter plates (Nunclon Delta, Thermo Fisher Scientific) in a volume of 100 μL per well. H2O2 served as a positive control for ROS induction. After pre-incubation, the DCFH-DA loaded cells were added to the test compounds (100 μL per well) to give a final volume of 200 μL in each well and the 96-well plate was placed in a multi-mode microplate reader (FLUOstar Omega, BMG Labtech), set to 30°C incubation temperature. The fluorescence signal was recorded every 5 min over a time course of 4 h at excitation and emission wavelengths of 485 and 520 nm, respectively. Measurements were prepared in duplicates and assays were performed at least three times.
Since ROS production is an early marker for programmed cell death, we were also interested whether the investigated AMPs induce ROS in C. albicans. Therefore, C. albicans cells were loaded with DCFH-DA, which is converted intracellularly to the highly fluorescent DCF when oxidized in the presence of ROS ([Chen et al., 2010]). During exposure of the cells to 0–20 μM AMPs the DCF signal intensities were recorded in RFU every 5 min over a time-course of 4 h. The background RFU of 6,757 ± 117 was detected in C. albicans cells that were not exposed to AMPs, but loaded with DCFH-DA, diluted in 0.05× PDB (0.1% DMSO final concentration). The RFU value remained constant over the time of measurement. For all AMPs, we detected a time- and dose-dependent increase of ROS (Supplementary Figure S9) and ROS production was prevented by the addition of 1 mM of the antioxidant ascorbic acid to the highest concentration (20 μM) of each AMP (Supplementary Figure S10).

Compound	Candida cells killed (cfu vs untreated control) (C. albicans [1]; 1)	Candida cells killed (cfu vs untreated control) (C. albicans [1]; 2)	cell size reduction (change in FSC vs untreated cells) (C. albicans [2]; 10 min)	cell size reduction (change in FSC vs untreated cells) (C. albicans [2]; 30 min)	ROS signal above the background (C. albicans [3]; 1.3 μM, 4 h)	fluorescence signal above the background (ROS) (C. albicans [3]; 20 μM, 30 min)	ROS signal higher compared to Pγ (C. albicans [3]; 20 μM)	ROS signal above the level induced by Pγ (C. albicans [3]; 20 μM, 4 h)	Candida cells killed (cfu vs untreated control) (C. albicans [1]; 1× MIC, 0.05× PDB, 30°C, mean ± SD)
CC(=O)N[C@@H](CCCCN)C(=O)N[C@@H](Cc1ccc(O)cc1)C(=O)N[C@H](C(=O)NCC(=O)N[C@@H](CCCCN)C(=O)N[C@@H](CS)C(=O)N[C@@H](CCCCN)C(=O)N[C@H](C(=O)N[C@@H](CCCCN)C(=O)N[C@@H](CCCCN)C(=O)N[C@@H](CC(N)=O)C(=O)N[C@@H](CCCCN)C(=O)N[C@@H](CS)C(=O)N[C@@H](CCCCN)C(N)=O)[C@@H](C)O)[C@@H](C)O [Pγ^opt] (Ac-KYTGKCKTKKNKCK-NH2)	29 ± 10%	88 ± 8%	18 ± 10%	37 ± 12%	36%	31%	+85%	446%	
CC(=O)N[C@@H](CCCCN)C(=O)N[C@@H](Cc1ccc(O)cc1)C(=O)N[C@H](C(=O)NCC(=O)N[C@@H](CCCCN)C(=O)N[C@@H](CS)C(=O)N[C@@H](Cc1ccc(O)cc1)C(=O)N[C@@H](CCCCN)C(=O)N[C@@H](CCCCN)C(=O)N[C@@H](CCCCN)C(=O)N[C@@H](CC(N)=O)C(=O)N[C@@H](CCC(=O)O)C(=O)N[C@@H](CS)C(=O)N[C@@H](CCCCN)C(N)=O)[C@@H](C)O [Pγ^var] (Ac-KYTGKCYKKKNECK-NH2)		50 ± 28%	28 ± 13%	48 ± 8%			+50%	146%	no killing effects
